Literature values as cited in patent US12102667B2, “Polypeptides and antibiotics against gram-negative bacterium comprising the same” (priority 2021, dated 2024).
Where two headings read alike, the source gives them in different places.

How the values were obtained:
[1] = system: E. coli; conditions: cited from earlier work
[2] = system: K. pneumoniae; conditions: K. pneumoniae CCARM 10143; cited from earlier work

## O=C(O)c1cn(C2CC2)c2cc(N3CCNCC3)c(F)cc2c1=O [Ciprofloxacin]
[1]; E. coli CCARM 1A746
  MIC of antibiotics: 128 µg/mL
[1]; E. coli CCARM 1B684
  MIC of antibiotics: 64 µg/mL
[2]
  MIC of antibiotics: ≤0.25 µg/mL

## CO/N=C(\C(=O)N[C@@H]1C(=O)N2C(C(=O)O)=C(COC(C)=O)CS[C@H]12)c1csc(N)n1 [Cefotaxime]
[1]; E. coli CCARM 1A746
  MIC of antibiotics: 128 µg/mL
[1]; E. coli CCARM 1B684
  MIC of antibiotics: 0.25 µg/mL
[2]
  MIC of antibiotics: 16 µg/mL

## CC1(C)S[C@@H]2[C@H](NC(=O)[C@H](N)c3ccccc3)C(=O)N2[C@H]1C(=O)O [Ampicillin]
[1]; E. coli CCARM 1A746
  MIC of antibiotics: ≥128 µg/mL
[1]; E. coli CCARM 1B684
  MIC of antibiotics: ≥128 µg/mL
[2]
  MIC of antibiotics: ≥128 µg/mL

## Gentamicin
[1]; E. coli CCARM 1A746
  MIC of antibiotics: ≥128 µg/mL
[1]; E. coli CCARM 1B684
  MIC of antibiotics: 128 µg/mL
[2]
  MIC of antibiotics: ≥128 µg/mL

## CC(=O)OCC1=C(C(=O)O)N2C(=O)[C@@H](NC(=O)Cc3cccs3)[C@H]2SC1 [Cephalothin]
[1]; E. coli CCARM 1A746
  MIC of antibiotics: ≥128 µg/mL
[1]; E. coli CCARM 1B684
  MIC of antibiotics: 64 µg/mL
[2]
  MIC of antibiotics: ≥128 µg/mL
